Paper PMC3566133, “Molecular Analysis of the Prostacyclin Receptor’s Interaction with the PDZ1 Domain of Its Adaptor Protein PDZK1” (PLoS ONE, 2013)
Blank lines part the entries; values can stand above or below the molecule they belong to. Where a SMILES comes first, the peptide text is derived from it.

Columns and labels:
PDZ1 domain of PDZK1 = molecular target: T1, PDZ1 domain of PDZK1 (Mus musculus, UniProt Q9JIL4); assay: Isothermal titration calorimetry (ITC), binding to recombinant PDZ1 domain of PDZK1; details: VP-ITC microcalorimeter, 1.0 mM peptide titrated into 0.03 mM PDZ1, 150 mM NaCl, 25 mM Tris-pH 8.0, 0.5 mM TCEP, 20°C, triplicate, ORIGIN 7.0, read-out: Kd (binding affinity) to PDZ1
T1 construct: Recombinant wild-type PDZ1 domain (0.03 mM in 150 mM NaCl); made in house
T1 sequence (Q9JIL4 9-90 limits assumed): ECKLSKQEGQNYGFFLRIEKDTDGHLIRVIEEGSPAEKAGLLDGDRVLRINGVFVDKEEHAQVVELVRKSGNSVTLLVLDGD
Procedure: Expression and purification of recombinant proteins corresponding to PDZ1 domain 1(PDZ1) of PDZK1 and to full length PDZK1 has been described previously. Binding of synthetic peptides based on the C-terminus of the IP (Fig. 1) was measured using a VP-ITC microcalorimeter (GE Healthcare). Three individual peptides were used: Peptide 1 corresponded to the seven carboxy-terminal amino acids of mouse (m) IP, to which two N-terminal lysines (not part of the IP protein sequence) were added to increase peptide solubility (KK^411IAACSLC^417, ‘target peptide’); Peptide 2 consisted of an octapeptide corresponding to the carboxy-terminus of IP (K^407SEAIAAC^414) devoid of the 3 terminal amino acids (-aaX/-^415SLC^417) which would be removed by proteolytic cleavage following farnesylation. […] Titration curves were analyzed and Kd values determined using ORIGIN 7.0 software (Origin Lab) with baseline correction. […]
Figure 2 Isothermal titration calorimetric analysis of the binding of a C-terminal peptide from IP to the PDZ1 domain of PDZK1. […] Titration curves were analyzed and Kd values determined using ORIGIN 7.0 software. […]

PDZ1 of PDZK1 = details: cited from earlier work
Text: PDZK1 is a multi-PDZ domain-containing adaptor protein known to play a role in the expression, localization and function of several cell surface receptors and ion channels. One of its molecular interactants is the prostacyclin receptor (IP), whose interaction with PDZK1 was recently described. […] These interactions involve a Class I type of binding typically seen for protein interactants with carbox ... || We recently solved the structures of the interactions between the HDL receptor SR-BI with the first and with the third PDZ domains of PDZK1 by X-ray crystallography, [32]. […] The crystal structure described herein, analyzing the interaction between the carboxy-terminus of the I ...

[1] = system: third PDZ domain (PDZ3) of PDZK1; details: cited from earlier work
Text: We recently solved the structures of the interactions between the HDL receptor SR-BI with the first and with the third PDZ domains of PDZK1 by X-ray crystallography, [32]. […] The crystal structure described herein, analyzing the interaction between the carboxy-terminus of the I ...

[2] = molecular target: the molecule itself; assay: crystal structure; PDZ1-IP chimera at 1 mM, sitting drop vapor diffusion, 18°C, 0.1 M MES pH 6.5, 30% (w/v) PEG 300; 1.70 Å; the IP peptide of one molecule binds the PDZ1 of the adjacent molecule
[3] = molecular target: T2, PDZK1 residues 7-106 (PDZ1 domain 7-86 with interdomain residues 87-106), the PDZK1 portion of the PDZ1-IP … (mouse, UniProt Q9JIL4 7-106); assay: as above; details: both partners purified
T2 construct: PDZK1 residues 7-106: PDZ1 (7-86) and interdomain residues 87-106; numbering of the intact murine PDZK1; Stood in the crystal joined on one chain with m8 (the chimera m6, with Gly-Ser at its N-terminus); written apart for the pair PDZ1 with the IP peptide; also called PDZ1 portion of the structure; source: E. coli JM109, purified, as part of the PDZ1-IP chimera; not shown: GST, N-terminal, cleaved
T2 sequence (looked up): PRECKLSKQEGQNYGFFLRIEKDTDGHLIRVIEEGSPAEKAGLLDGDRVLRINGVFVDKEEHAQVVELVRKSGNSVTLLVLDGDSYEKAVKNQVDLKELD

[4] = molecular target: T3, recombinant full-length PDZK1 (mouse, UniProt Q9JIL4 1-519); assay: ITC; 1.0 mM peptide injected in 10 µl aliquots into 0.03 mM PDZ1 or full length PDZK1 in the cell; 150 mM NaCl, 25 mM Tris pH 8.0, 0.5 mM TCEP, 20°C; VP-ITC; details: both partners purified
T3 construct: PDZK1, full length, with PDZ1-PDZ4; source: recombinant, purified
T3 sequence (looked up): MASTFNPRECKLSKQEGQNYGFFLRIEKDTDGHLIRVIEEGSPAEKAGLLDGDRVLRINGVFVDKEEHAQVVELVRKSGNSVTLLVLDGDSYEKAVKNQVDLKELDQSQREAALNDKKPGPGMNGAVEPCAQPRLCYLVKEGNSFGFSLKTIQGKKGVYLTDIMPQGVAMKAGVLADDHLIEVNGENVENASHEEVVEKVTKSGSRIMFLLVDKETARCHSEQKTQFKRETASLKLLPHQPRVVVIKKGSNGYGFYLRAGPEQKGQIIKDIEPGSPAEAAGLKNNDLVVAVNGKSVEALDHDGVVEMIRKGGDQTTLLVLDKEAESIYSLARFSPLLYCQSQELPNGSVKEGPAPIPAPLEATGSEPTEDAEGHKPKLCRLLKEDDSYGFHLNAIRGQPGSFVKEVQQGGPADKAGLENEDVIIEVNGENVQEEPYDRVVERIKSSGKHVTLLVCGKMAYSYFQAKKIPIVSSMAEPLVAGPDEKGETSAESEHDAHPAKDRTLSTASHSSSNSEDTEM

[5] = molecular target: T4, recombinant protein corresponding to PDZ domain 1 (PDZ1) of PDZK1 (mouse); assay: as above
T4 sequence (Q9JIL4 whole entry, looked up): T3 sequence (looked up)

Molecule: -VLQEAKL [SR-BI, scavenger receptor class B, type I]
Kd (PDZ1 of PDZK1; PDZ1 of PDZK1, read-out: Kd of SR-BI binding to PDZ1): 2.6 µM | Affinity of SR-BI/PDZ1 interaction (PDZ1 of PDZK1): high affinity | Affinity of SR-BI/PDZ3 interaction [1]: lower affinity

B1: chimeric PDZ1-IP recombinant protein (residues 7-106 of PDZK1 fused to the seven carboxy-terminal amino acids of mouse IP) (other)
chain: GSPRECKLSKQEGQNYGFFLRIEKDTDGHLIRVIEEGSPAEKAGLLDGDRVLRINGVFVDKEEHAQVVELVRKSGNSVTLLVLDGDSYEKAVKNQVDLKELDIAACSLC
notes: Gly-Ser dipeptide from the cloning vector (pGEX-4T-3), left at the N-terminus after thrombin digestion; PDZK1 residues 7-106: PDZ1 (7-86) and interdomain residues 87-106; numbering of the intact murine PDZK1; prostacyclin receptor (IP), mouse, seven carboxy-terminal residues 411-417; In the structure the chain is numbered 7Pro to 113Cys; also called PDZ1-IP chimera; PDZ1-IP target peptide …
binding result [2]: binds

B3: Peptide 1 (KK411IAACSLC417), seven carboxy-terminal amino acids of mouse IP with two added N-terminal lysines (peptide)
peptide: KKIAACSLC
notes: prostacyclin receptor (IP), mouse, seven carboxy-terminal residues 411-417; also called target peptide; C-terminal nonapeptide from IP; source: synthetic peptide, HPLC purified (Tufts University Core Facility)
Kd [4]: 60.2 ± 14.2 µM | Kd [5]: 8.2 µM

Other lines, results leading:

Kd (PDZ1 domain of PDZK1): 8.2 µM
Molecule: CC[C@H](C)[C@H](NC(=O)[C@H](CCCCN)NC(=O)[C@@H](N)CCCCN)C(=O)N[C@@H](C)C(=O)N[C@@H](C)C(=O)N[C@@H](CS)C(=O)N[C@@H](CO)C(=O)N[C@@H](CC(C)C)C(=O)N[C@@H](CS)C(=O)O [Peptide 1] (H-KKIAACSLC-OH)

binding result [3]: binds
B2: seven carboxy-terminal residues of mouse IP (411IAACSLC417), the IP portion of the PDZ1-IP chimera (peptide)
peptide: IAACSLC
notes: prostacyclin receptor (IP), mouse, seven carboxy-terminal residues 411-417; also numbered -6 to 0 from the C-terminal residue; Stood in the crystal fused to the C-terminus of m7 (the chimera m6); also called IP target peptide; IP peptide; source: E. coli JM109, purified, as part of the PDZ1-IP chimera
